Measured values: ChEMBL document CHEMBL5724914, “Linking interpersonal differences in gut microbiota composition and drug biotransformation activity” (2024)

Tests used:
[1] = human gut metagenome, 24 h, 2 µM
[2] = human gut metagenome, 24 h, 2 µM; remark: listed apart in the source
[3] = (§1) The drug is tested on WLS-350 corresponding to human gut metagenome with ENA study accession number: PRJEB37062 and ENA sample accession number: ERS12561789 for biotransformation under anaerobic condition. The drug concentrations were measured over 9 timepoints collected between 0 and 24 hours of incubation by liquid-chromatography-coupled mass spectrometry (LC–MS); conditions: 2 µM
[4] = human gut metagenome, 24 h, 2 µM; remark: listed apart in the source
[5] = human gut metagenome, 24 h, 2 µM; remark: listed apart in the source
[6] = human gut metagenome, 24 h, 2 µM; remark: listed apart in the source
[7] = as §1, with “Z-021” for “WLS-350”, “to” for “to human gut”, “ERS12561820” for “ERS12561789”; conditions: 2 µM
[8] = human gut metagenome, 24 h, 2 µM; remark: listed apart in the source
[9] = human gut metagenome, 24 h, 2 µM; remark: listed apart in the source
[10] = human gut metagenome, 24 h, 2 µM; remark: listed apart in the source
[11] = as §1, with “WLS-220” for “WLS-350”, “ERS12561769” for “ERS12561789”; conditions: 2 µM
[12] = as §1, with “Z-018” for “WLS-350”, “pig” for “human”, “ERS12561817” for “ERS12561789”; conditions: 2 µM
[13] = as §1, with “Z-025” for “WLS-350”, “rabbit” for “human”, “ERS12561824” for “ERS12561789”; conditions: 2 µM
[14] = as §1, with “WLS-310” for “WLS-350”, “ERS12561785” for “ERS12561789”; conditions: 2 µM
[15] = as §1, with “WLS-006” for “WLS-350”, “ERS12561741” for “ERS12561789”; conditions: 2 µM
[16] = as §1, with “Z-003” for “WLS-350”, “pig” for “human”, “ERS12561803” for “ERS12561789”; conditions: 2 µM
[17] = as §1, with “Z-001” for “WLS-350”, “mouse” for “human”, “ERS12561801” for “ERS12561789”; conditions: 2 µM
[18] = human gut metagenome, 24 h, 2 µM; remark: listed apart in the source
[19] = as §1, with “Z-007” for “WLS-350”, “rat” for “human”, “ERS12561807” for “ERS12561789”; conditions: 2 µM
[20] = as §1, with “Z-024” for “WLS-350”, “pig” for “human”, “ERS12561823” for “ERS12561789”; conditions: 2 µM
Note: call rule not given here.

Bacterial Biotransformation [1] | Bacterial Biotransformation [2] | Bacterial Biotransformation [3] | Bacterial Biotransformation [4] | Bacterial Biotransformation [5] | Bacterial Biotransformation [6] | Bacterial Biotransformation [7] | Bacterial Biotransformation [8] | Bacterial Biotransformation [9] | Bacterial Biotransformation [10] | Bacterial Biotransformation [11] | Bacterial Biotransformation [12] | Bacterial Biotransformation [13] | Bacterial Biotransformation [14] | Bacterial Biotransformation [15] | Bacterial Biotransformation [16] | Bacterial Biotransformation [17] | Bacterial Biotransformation [18] | Bacterial Biotransformation [19] | Bacterial Biotransformation [20] | SMILES
Compound NOT metabolized | Compound NOT metabolized | Compound NOT metabolized | Compound NOT metabolized | Compound metabolized | Compound metabolized | Compound NOT metabolized | Compound NOT metabolized | Compound metabolized | Compound NOT metabolized | Compound NOT metabolized | Compound NOT metabolized | Compound NOT metabolized | Compound NOT metabolized | Compound NOT metabolized | Compound NOT metabolized | Compound NOT metabolized | Compound NOT metabolized | Compound NOT metabolized | Compound NOT metabolized | Nc1nnc(-c2cccc(Cl)c2Cl)c(N)n1 [LAMOTRIGINE]
Compound NOT metabolized | Compound metabolized | Compound NOT metabolized | Compound metabolized | Compound metabolized | Compound metabolized | Compound metabolized | Compound NOT metabolized | Compound metabolized | Compound NOT metabolized | Compound metabolized | Compound metabolized | Compound NOT metabolized | Compound metabolized | Compound metabolized | Compound metabolized | Compound NOT metabolized | Compound NOT metabolized | Compound NOT metabolized | Compound metabolized | OC(c1cc(C(F)(F)F)nc2c(C(F)(F)F)cccc12)C1CCCCN1 (stereo not given) [MEFLOQUINE]
Compound metabolized | Compound metabolized | Compound metabolized | Compound metabolized | Compound metabolized | Compound metabolized | Compound NOT metabolized | Compound metabolized | Compound metabolized | Compound metabolized | Compound metabolized | Compound metabolized | Compound metabolized | Compound metabolized | Compound metabolized | Compound metabolized | Compound metabolized | Compound metabolized | Compound metabolized | Compound NOT metabolized | CC(=O)O[C@]1(C(C)=O)CC[C@H]2[C@@H]3C=C(C)C4=CC(=O)CC[C@]4(C)[C@H]3CC[C@@]21C [MEGESTROL ACETATE]
Compound NOT metabolized | Compound NOT metabolized | Compound NOT metabolized | Compound NOT metabolized | Compound NOT metabolized | Compound NOT metabolized | Compound NOT metabolized | Compound NOT metabolized | Compound NOT metabolized | Compound NOT metabolized | Compound NOT metabolized | Compound NOT metabolized | Compound NOT metabolized | Compound NOT metabolized | Compound NOT metabolized | Compound NOT metabolized | Compound NOT metabolized | Compound NOT metabolized | Compound NOT metabolized | Compound NOT metabolized | CC12CC3CC(C)(C1)CC(N)(C3)C2 [MEMANTINE]
